Some test systems named below: EKVX NSCLC; HCT-116 colon; LOX IMVI melanoma; M19-MEL melanoma; NCI-H226 lung; OVCAR-5 ovarian; OVCAR-8 ovarian; SNB-75 CNS; SNB-78 CNS; TK-10 renal.
Common to all, as to test: DTP human tumour cell line panel, 48 h

Results on 12 compounds are retold here after PubChem BioAssay (NCI).

For orientation: TGI means the concentration at which net growth stops. A higher TGI goes with less potent growth arrest. The term GI50 denotes the concentration that inhibits growth by half.

Several values for one entry are separate records, joined by “and”; a condition that tells them apart may be missing. Identical values can stand only once.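 Assay format: 96-well plates, 48-hour exposure. The concentration for 50% growth inhibition is given as GI50. TGI: total growth inhibition.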

As for `CCCN(CCC)c1c([N+](=O)[O-])cc(C(=O)N(CC)CC)cc1[N+](=O)[O-]`, the TGI worked out at 61.3 µM in the assay on EKVX NSCLC; 27.2 µM in the assay on HCT-116 colon; 30.8 µM in the assay with LOX IMVI melanoma; 47.8 µM with M19-MEL melanoma; 71.3 µM in the assay on NCI-H226 lung; 94.3 µM with OVCAR-5 ovarian. Moreover, the TGI is 69 µM in the assay with OVCAR-8 ovarian, 82.7 µM with SNB-75 CNS, > 100 µM in the assay with SNB-78 CNS and 76.8 µM with TK-10 renal.

As for `NC(=S)N/N=C/c1ncccc1O`, the GI50 is 8.58 µM with EKVX NSCLC; 2.86 µM with HCT-116 colon; 5.29 µM with LOX IMVI melanoma; 3.48 µM in the assay on M19-MEL melanoma; 4.3 µM in the assay on NCI-H226 lung; 5.21 µM with OVCAR-5 ovarian. In addition, the GI50 was 2.58 µM and 0.813 µM in the assay on OVCAR-8 ovarian; 2.16 µM in the assay on SNB-75 CNS; 64.7 µM in the assay on SNB-78 CNS; 11.2 µM in the assay on TK-10 renal. Besides, the TGI in the assay on EKVX NSCLC was > 92.8 µM and 28.1 µM; with HCT-116 colon it was > 391 µM; in the assay with LOX IMVI melanoma, 98.7 µM and 54.6 µM; in the assay on M19-MEL melanoma it was 16.9 µM and 39.7 µM; in the assay on NCI-H226 lung, 18 µM and 122 µM; with OVCAR-5 ovarian, > 82.4 µM and 154 µM. Also, the TGI in the assay with OVCAR-8 ovarian was > 72.2 µM and 135 µM; with SNB-75 CNS, > 51.9 µM and 60.6 µM; in the assay on SNB-78 CNS, > 1000 µM; in the assay with TK-10 renal, 292 µM.

Regarding `CCOc1ccc(OCC(=O)O)c2c1CCCC2=O`, the TGI in the assay on EKVX NSCLC, with LOX IMVI melanoma, with M19-MEL melanoma, in the assay on NCI-H226 lung, in the assay with OVCAR-5 ovarian and with OVCAR-8 ovarian was > 100 µM each time. Besides, the TGI in the assay with SNB-75 CNS, in the assay with SNB-78 CNS and in the assay with TK-10 renal was > 100 µM throughout.

For the compound `COc1cc(OC)c(OC)cc1/C=N/NC(=O)N/N=C/c1cc(OC)c(OC)cc1OC`, the TGI with EKVX NSCLC, in the assay with HCT-116 colon, with LOX IMVI melanoma, in the assay with M19-MEL melanoma, with NCI-H226 lung and in the assay on OVCAR-5 ovarian was > 100 µM throughout. In addition, the TGI in the assay on OVCAR-8 ovarian is > 100 µM; in the assay with SNB-75 CNS it was 52.3 µM; in the assay with SNB-78 CNS it was > 100 µM; in the assay on TK-10 renal, > 100 µM.

Consider `COc1ccc(NC(=O)CSc2nnc(-c3ccc(NC(C)=O)cc3)o2)cc1`, for which the TGI in the assay on EKVX NSCLC was 43.4 µM; in the assay on HCT-116 colon, 29.4 µM; in the assay on LOX IMVI melanoma it was 29.5 µM; in the assay with M19-MEL melanoma, 55.7 µM; in the assay with NCI-H226 lung, 57.8 µM; with OVCAR-5 ovarian, > 100 µM. The TGI was 36.6 µM with OVCAR-8 ovarian, > 100 µM in the assay on SNB-75 CNS, 44 µM in the assay with SNB-78 CNS and 41.2 µM in the assay with TK-10 renal.

As for `COc1ccc2c(=O)oc3c(OC)cc(CCN(C)C)c4c(=O)oc1c2c34`, the GI50 in the assay with EKVX NSCLC was 17.8 µM and 7.55 µM; in the assay on HCT-116 colon it was 14.3 µM and 5.27 µM; with LOX IMVI melanoma it was 17 µM and 7.81 µM; in the assay on SNB-75 CNS, 16.4 µM and 8.17 µM; in the assay with TK-10 renal it was 20.2 µM and 8.68 µM. In addition, the TGI with EKVX NSCLC was 34.9 µM and 15.9 µM; in the assay with HCT-116 colon, 27.9 µM and 11.9 µM; in the assay with LOX IMVI melanoma, 31.3 µM and 18 µM; in the assay on M19-MEL melanoma, 28.1 µM; in the assay on NCI-H226 lung it was 33.2 µM and 50 µM; in the assay on OVCAR-5 ovarian it was 31.9 µM and 22.3 µM. Moreover, the total growth inhibition concentration (TGI) in the assay on OVCAR-8 ovarian was 30.7 µM and 17.2 µM; in the assay with SNB-75 CNS it was 31.5 µM and 17.2 µM; with SNB-78 CNS, 35.9 µM; in the assay with TK-10 renal, 37.1 µM and 16.7 µM.

In the case of `O=S(=O)(OI(OI(OS(=O)(=O)C(F)(F)F)c1ccccc1)c1ccccc1)C(F)(F)F`, the TGI in the assay with EKVX NSCLC, with HCT-116 colon, in the assay on LOX IMVI melanoma, with M19-MEL melanoma, with NCI-H226 lung and with OVCAR-5 ovarian was > 100 µM in each case. For the same compound, the TGI with OVCAR-8 ovarian, in the assay on SNB-75 CNS, in the assay on SNB-78 CNS and with TK-10 renal was > 100 µM throughout.

In the case of `Cc1nc2c(N)ncnc2o1`, the TGI in the assay on EKVX NSCLC, in the assay on HCT-116 colon, in the assay on LOX IMVI melanoma, with M19-MEL melanoma, with NCI-H226 lung and in the assay with OVCAR-5 ovarian was > 100 µM throughout. The TGI in the assay on OVCAR-8 ovarian, in the assay with SNB-75 CNS, in the assay on SNB-78 CNS and in the assay with TK-10 renal was > 100 µM in each case.

Turning to `O=Cc1cc2c(cc1-c1cc3c(cc1C=O)OCO3)OCO2`, the TGI in the assay on EKVX NSCLC was > 100 µM; in the assay on HCT-116 colon it was > 100 µM; with LOX IMVI melanoma it was 56.3 µM; in the assay with M19-MEL melanoma, > 100 µM; in the assay with NCI-H226 lung, > 100 µM; in the assay on OVCAR-5 ovarian, > 100 µM. The TGI in the assay with OVCAR-8 ovarian, in the assay with SNB-75 CNS, in the assay on SNB-78 CNS and in the assay with TK-10 renal was > 100 µM throughout.

For `Nc1nc(Cl)nc2c1ncn2C1CC(O)C(CO)O1` (configuration not stated), the TGI in the assay on EKVX NSCLC was 34.5 µM; with HCT-116 colon it was > 100 µM; in the assay with LOX IMVI melanoma, 30.6 µM; in the assay with M19-MEL melanoma, > 100 µM; in the assay on NCI-H226 lung, 62.5 µM; in the assay with OVCAR-5 ovarian, > 100 µM. For the same compound, the TGI with OVCAR-8 ovarian was > 100 µM; in the assay on SNB-75 CNS, > 91.9 µM; in the assay on SNB-78 CNS, > 100 µM; with TK-10 renal it was > 100 µM. The GI50 with TK-10 renal is 50.2 µM.

As to `CCCCNCCCNCCCNC(=O)c1csc(-c2csc(CCNC(=O)C(NC(=O)C(C)C(O)C(C)NC(=O)C(NC(=O)c3nc(C(CC(N)=O)NCC(N)C(N)=O)nc(N)c3C)C(OC3OC(CO)C(O)C(O)C3OC3OC(CO)C(O)C(OC(N)=O)C3O)c3cnc[nH]3)C(C)O)n2)n1` (configuration not stated), the GI50 with EKVX NSCLC is > 50 µM; in the assay with HCT-116 colon, 0.427 µM; with LOX IMVI melanoma it was 0.194 µM; in the assay with NCI-H226 lung, 0.477 µM; in the assay with OVCAR-5 ovarian, 5.86 µM; with OVCAR-8 ovarian, 0.908 µM. Moreover, the results for the GI50 with SNB-75 CNS and in the assay on TK-10 renal were 0.0257 µM and > 50 µM, respectively. Besides, the total growth inhibition concentration (TGI) in the assay on EKVX NSCLC was > 50 µM and 61.8 µM; in the assay on HCT-116 colon, 50 µM and 14.2 µM; in the assay on LOX IMVI melanoma it was 7.15 µM and 6.49 µM; with M19-MEL melanoma, > 100 µM; in the assay with OVCAR-5 ovarian, 50 µM and > 44.5 µM; with OVCAR-8 ovarian, 12.1 µM and 40.4 µM. The TGI in the assay on SNB-75 CNS is 0.716 µM and 3.37 µM; in the assay on SNB-78 CNS, > 100 µM; with TK-10 renal, > 50 µM and 58.2 µM.

As to `O=C1C=C(c2c(O)ccc3ccccc23)c2cc(O)ccc2C1=O`, the TGI in the assay with EKVX NSCLC worked out at 38.2 µM; with HCT-116 colon, 30.1 µM; in the assay with LOX IMVI melanoma, 25.3 µM; in the assay on M19-MEL melanoma, 9.68 µM; in the assay with NCI-H226 lung, 44.1 µM; in the assay on OVCAR-5 ovarian, 35.5 µM. The TGI with OVCAR-8 ovarian is 28.9 µM; with SNB-75 CNS, 42.6 µM; with SNB-78 CNS it was 42.5 µM; in the assay with TK-10 renal it was 35.4 µM.
